Test: Functional Dkk1-LRP5-TCF-Luciferase Assay in U2OS Cells (table columns: A=MAX FOLD Induction/DMSO CONTROL; B=fold induction @ 2.0 uM; C=fold induction @ 20.0 uM)
Assay type: cell-based, Human
Conditions: Homo sapiens, U2OS; for fold induction at 2 µM: 2.0 uM compound; for fold induction at 20 µM: 20.0 uM compound
Method in brief: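 U2OS cells co-transfected with 16×TCF-TK-firefly luciferase, TK-Renilla control, Wnt3a and Dkk1, then frozen; thawed cells (~5,000/well, ~5% FBS, phenol red-free RPMI) incubated ~20 h at 37° C. with compound (0.25% DMSO). Firefly luminescence (Bright-Glo) normalized to DMSO mean as fold induction.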

Q: Which results are given for `Cc1nc2c(-c3ccc4ccccc4c3)ccnc2n1C1CNC1` [3-azetidin-3-yl-2-methyl-7-(2-naphthyl)-3H-imidazo[4,5-b]pyridine]?
A: fold induction at 2 µM: 1.16; fold induction at 20 µM: 0.76

Q: Which fold induction at 2 µM does the source give for `c1ccc2cc(-c3ccnc4c3ncn4C3CNC3)ccc2c1` [3-azetidin-3-yl-7-(2-naphthyl)-3H-imidazo[4,5-b]pyridine] here?
A: 1.49

Q: What about the fold induction at 20 µM of the same molecule?
A: 1.25

Q: With `c1ccc2cc(-c3cnc4c(c3)nc(-c3ccnc5ccccc35)n4C3CCNCC3)ccc2c1` [4-[6-(2-naphthyl)-3-piperidin-4-yl-3H-imidazo[4,5-b]pyridin-2-yl]quinoline] as the molecule, how does the fold induction at 2 µM read?
A: 1.81

Q: For `c1ccc(N(c2ccccc2)c2ccc(-c3nc4c(-c5ccc6ccccc6c5)ccnc4n3C3CCNCC3)cc2)cc1` [4-[7-(2-naphthyl)-3-piperidin-4-yl-3H-imidazo[4,5-b]pyridin-2-yl]-N,N-diphenylaniline], which fold induction at 2 µM is on record?
A: 1.89

Q: With `N#Cc1ccc(-c2nc3c(-c4ccc5ccccc5c4)ccnc3n2C2CCNCC2)cc1` [4-[7-(2-naphthyl)-3-piperidin-4-yl-3H-imidazo[4,5-b]pyridin-2-yl]benzonitrile] as the molecule, how does the fold induction at 2 µM read?
A: 1.58

Q: Which fold induction at 2 µM does the source give for `Oc1ccc(-c2nc3c(-c4ccc5ccccc5c4)ccnc3n2C2CCNCC2)cc1` [4-[7-(2-naphthyl)-3-piperidin-4-yl-3H-imidazo[4,5-b]pyridin-2-yl]phenol] here?
A: 1.3

Q: For `c1ccc2cc(-c3ccnc4c3nc(-c3ccnc5ccccc35)n4C3CCNCC3)ccc2c1` [4-[7-(2-naphthyl)-3-piperidin-4-yl-3H-imidazo[4,5-b]pyridin-2-yl]quinoline], which fold induction at 2 µM is on record?
A: 1.07

Q: With `c1ccc2cc(-c3ccc4ncn(C5CCNCC5)c4n3)ccc2c1` [5-(2-naphthyl)-3-piperidin-4-yl-3H-imidazo[4,5-b]pyridine] as the molecule, how does the fold induction at 2 µM read?
A: 0.32

Q: For `c1ccc2cc(-c3cnc4c(c3)nc(-c3cccc5ncccc35)n4C3CCNCC3)ccc2c1` [5-[6-(2-naphthyl)-3-piperidin-4-yl-3H-imidazo[4,5-b]pyridin-2-yl]quinoline], which fold induction at 2 µM is on record?
A: 1.29

Q: Which fold induction at 2 µM does the source give for `O=c1[nH]cc(-c2nc3c(-c4ccc5ccccc5c4)ccnc3n2C2CCNCC2)c(=O)[nH]1` [5-[7-(2-naphthyl)-3-piperidin-4-yl-3H-imidazo[4,5-b]pyridin-2-yl]pyrimidine-2,4(1H,3H)-dione] here?
A: 1.94

Q: What about the fold induction at 20 µM of the same molecule?
A: 1.91

Q: With `c1ccc2cc(-c3ccnc4c3nc(-c3cccc5ncccc35)n4C3CCNCC3)ccc2c1` [5-[7-(2-naphthyl)-3-piperidin-4-yl-3H-imidazo[4,5-b]pyridin-2-yl]quinoline] as the molecule, how does the fold induction at 2 µM read?
A: 1.33

Q: With `O=[N+]([O-])c1ccccc1-c1nc2cc(-c3ccc4ccccc4c3)cnc2n1C1CCNCC1` [6-(2-naphthyl)-2-(2-nitrophenyl)-3-piperidin-4-yl-3H-imidazo[4,5-b]pyridine] as the molecule, how does the fold induction at 2 µM read?
A: 1.13

Q: For `O=[N+]([O-])c1cccc(-c2nc3cc(-c4ccc5ccccc5c4)cnc3n2C2CCNCC2)c1` [6-(2-naphthyl)-2-(3-nitrophenyl)-3-piperidin-4-yl-3H-imidazo[4,5-b]pyridine], which fold induction at 2 µM is on record?
A: 1.3

Q: With `c1ccc(-c2nc3cc(-c4ccc5ccccc5c4)cnc3n2C2CCNCC2)cc1` [6-(2-naphthyl)-2-phenyl-3-piperidin-4-yl-3H-imidazo[4,5-b]pyridine] as the molecule, how does the fold induction at 2 µM read?
A: 1.6

Q: For `c1csc(-c2nc3cc(-c4ccc5ccccc5c4)cnc3n2C2CCNCC2)c1` [6-(2-naphthyl)-3-piperidin-4-yl-2-(2-thienyl)-3H-imidazo[4,5-b]pyridine], which fold induction at 2 µM is on record?
A: 1.04

Q: Which fold induction at 2 µM does the source give for `CCCc1nc2cc(-c3ccc4ccccc4c3)cnc2n1C1CCNCC1` [6-(2-naphthyl)-3-piperidin-4-yl-2-propyl-3H-imidazo[4,5-b]pyridine] here?
A: 1.38

Q: What about the fold induction at 20 µM of the same molecule?
A: 0.01

Q: For `c1ccc(-c2nc3cc(-c4ccc5ccccc5c4)cnc3n2C2CCNCC2)nc1` [6-(2-naphthyl)-3-piperidin-4-yl-2-pyridin-2-yl-3H-imidazo[4,5-b]pyridine], which fold induction at 2 µM is on record?
A: 1.6

Q: What about the fold induction at 20 µM of the same molecule?
A: 0.005

— US20090069319A1, “IMIDAZOPYRIDINE ANALOGS AND THEIR USE AS AGONISTS OF THE WNT-BETA-CATENIN CELLULAR MESSAGING SYSTEM” (Wyeth, priority 2007, published 2009)
